US20240148707A1, “MODULATION OF DRUG-DRUG INTERACTIONS OF VADADUSTAT” (Akebia Therapeutics, Inc., priority 2021, published 2024)
Like-named read-outs stand apart in the source and are kept apart here.

Assays:
UGT1A1 = biological target: T1, UGT1A1 (Homo sapiens, UniProt P22309); assay: Enzyme inhibition (in vitro); format: in vitro ADME
T1 sequence (P22309 26-533): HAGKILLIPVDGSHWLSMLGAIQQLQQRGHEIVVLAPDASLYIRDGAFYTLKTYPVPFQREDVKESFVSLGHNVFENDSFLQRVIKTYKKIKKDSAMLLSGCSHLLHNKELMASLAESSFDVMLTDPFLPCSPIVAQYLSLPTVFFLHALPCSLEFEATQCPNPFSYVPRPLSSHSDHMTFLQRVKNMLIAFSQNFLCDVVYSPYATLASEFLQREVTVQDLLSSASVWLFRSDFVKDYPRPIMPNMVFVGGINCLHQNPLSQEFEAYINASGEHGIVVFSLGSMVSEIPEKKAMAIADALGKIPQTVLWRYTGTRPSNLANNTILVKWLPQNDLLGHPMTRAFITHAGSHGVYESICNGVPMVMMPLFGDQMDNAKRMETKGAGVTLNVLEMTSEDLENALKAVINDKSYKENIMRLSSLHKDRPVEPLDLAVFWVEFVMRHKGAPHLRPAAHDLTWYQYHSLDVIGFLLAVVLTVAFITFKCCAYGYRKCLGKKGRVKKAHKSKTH

[1] = tested on: UGT1A1, UGT1A7, UGT1A8 and UGT1A9; assay: UGT isoforms generating the O-glucuronide (in vitro); format: in vitro ADME, human
normal rats = assay: Hemoglobin concentration and red blood cell count after repeated dosing; format: in vivo, rat; settings: repeated oral administration for 14 days
[2] = Phase I drug-drug interaction study with cyclosporine (Part 1, Arm 1); format: in vivo, human; settings: for AUC(0-inf) / AUC(0-t) / Cmax: both sexes, human, plasma, fasted
Experimental: A phase I, open-label, 2-part study was conducted in healthy male and female subjects to evaluate the potential for interaction of cyclosporine (Part 1, Arm 1), probenecid (Part 1, Arm 2), and rifampin (Part 2) with vadadustat.
Subjects were randomized in a 1:1 ratio to 1 of 2 dosing sequences (A:B or B:A) to receive vadadustat 300 mg alone and vadadustat 300 mg in combination with oral cyclosporine 500 mg in a crossover design. Study drugs were administered in the morning after at least a 10-hour overnight fast. Subjects remained fasted for at least 4 hours post-dose. • Treatment A: a single oral dose of vadadustat (300 mg) administered as 2×150 mg tablets. • Treatment B: a single oral dose of vadadustat (300 mg) administered as 2×150 mg tablets co-administered with a single oral dose of cyclosporine (500 mg) administered as 5×100 mg capsules.
On the morning of Day 1, subjects received the first treatment (A or B). Following a 7-day washout, subjects crossed over to Period 2 to receive the second treatment of the dosing sequence (A or B) on Day 8.
On each dosing day (Day 1 and Day 8) blood samples for PK analysis were collected up to 48 hours post-dose. Subjects were discharged from the clinical research unit (CRU) on the morning of Day 10, after the final 48-hour post-dose PK sample had been collected. A follow-up phone call was conducted 30 days±2 days after the final dose.

[3] = Phase III clinical trial in patients with hemodialysis anemia; format: in vivo, human
Experimental: The incidence of adverse reactions when this drug was administered up to 24 weeks was 8.3% (2/24 cases).

normal rat = assay: Blood erythropoietin concentration increasing action; format: in vivo; settings: single oral administration

- inhibitory effect on UGT1A1 (UGT1A1): inhibitory effect
- UGT isoforms involved in the generation of the O-glucuronide [1]: UGT1A1, UGT1A7, UGT1A8 and UGT1A9
- AUC(0-inf) ([2]; vadadustat 300 mg + cyclosporine 500 mg, single oral doses, read-out: AUCinf, geometric LSM, Treatment V + C): 293 µg·h/mL
- AUC(0-t) ([2]; vadadustat 300 mg + cyclosporine 500 mg, single oral doses, read-out: AUClast, geometric LSM, Treatment V + C): 292 µg·h/mL
- Cmax ([2]; vadadustat 300 mg + cyclosporine 500 mg, single oral doses, read-out: Cmax, geometric LSM, Treatment V + C): 37100 ng/mL
- AUC(0-inf) ([2]; vadadustat 300 mg alone, single oral dose, read-out: AUCinf, geometric LSM, Treatment V): 251 µg·h/mL
- AUC(0-t) ([2]; vadadustat 300 mg alone, single oral dose, read-out: AUClast, geometric LSM, Treatment V): 249 µg·h/mL
- Cmax ([2]; vadadustat 300 mg alone, single oral dose, read-out: Cmax, geometric LSM, Treatment V): 45400 ng/mL
- changes in the Cmax and AUC values ([2]; vadadustat in combination with cyclosporine): no clinically relevant changes
Structure (SMILES): O=C(O)CNC(=O)c1ncc(-c2cccc(Cl)c2)cc1O [Compound 1, {[5-(3-chlorophenyl)-3-hydroxypyridine-2-carbonyl]amino}acetic acid]
- hemoglobin concentration (normal rats): increasing
- red blood cell count (normal rats): increasing
- tolerability ([2]; during treatment with cyclosporine, healthy subjects): tolerated
- incidence of adverse reactions ([3]; administered up to 24 weeks (2/24 cases)): 8.3%
- hemoglobin level before administration ([3]; baseline, 23 people, mean ± standard deviation): 9.30 ± 0.67
- blood erythropoietin levels (normal rat): elevated blood erythropoietin levels
